Measurements: publication PMC8222394 (Nature Communications, 2021)
“And” between values parts separate entries of the source, which are not always exact repeats. Equal values may be shown once. Read-outs that look alike come from different tables or passages of the source.

Key:
[1] = system: SARS-CoV-2 pseudovirus; test: microbe, parasite or virus in culture; type: cell-based; settings: Severe acute respiratory syndrome-related coronavirus
[2] = system: SARS-CoV-2 (wildtype-USA-WA1/2020); type: cell-based
[3] = system: SARS-CoV-2 pseudovirus; type: cell-based
[4] = in vitro; settings: human
[5] = system: E-cadherin; test: Immunoblot of E-cadherin in Caco-2 cells; type: cell-based, human
[6] = system: SARS-CoV-2 pseudovirus; type: cell-based; remark: listed apart in the source
[7] = system: Ace2-GFP; test: Immunoblot of Ace2-GFP in Beas-2B cells; type: cell-based
[8] = molecular target: TMPRSS2 (Homo sapiens, UniProt O15393); test: TMPRSS2 activity assay (Boc-Gln-Ala-Arg-MCA fluorescence); type: biochemical; set-up: purchased LSBio; settings: for TMPRSS2 activity (FigS9 source data): replicates
TMPRSS2 (Homo sapiens, UniProt O15393), sequence (O15393 106-492): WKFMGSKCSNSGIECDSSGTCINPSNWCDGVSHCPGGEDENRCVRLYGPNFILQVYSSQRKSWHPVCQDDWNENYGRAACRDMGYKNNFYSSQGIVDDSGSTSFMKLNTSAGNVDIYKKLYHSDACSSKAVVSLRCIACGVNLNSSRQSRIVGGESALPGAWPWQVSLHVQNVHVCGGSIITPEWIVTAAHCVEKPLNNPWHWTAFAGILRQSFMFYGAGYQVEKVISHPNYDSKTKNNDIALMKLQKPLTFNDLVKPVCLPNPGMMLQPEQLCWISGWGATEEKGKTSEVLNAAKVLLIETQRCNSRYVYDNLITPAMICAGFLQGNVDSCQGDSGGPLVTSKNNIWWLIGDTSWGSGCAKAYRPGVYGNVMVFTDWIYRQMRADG
Procedure: Fluorescence (380-15 nm excitation/470-20 nm emission) of the samples was monitored over 4:45 h and the slope of the curves was calculated by linear regression analysis and used as output for TMPRSS2 activity.

[9] = system: TMPRSS2-V5; type: cell-based, human
[10] = system: DCAF1; test: qPCR of DCAF1 gene expression in Caco-2 cells; type: cell-based, human
[11] = system: corin; test: RT-qPCR of CORIN mRNA in Caco-2 cells; type: cell-based, human; settings: Fig. S3B, Caco-2, 6 hr, relative to Veh
[12] = system: TMPRSS2
[13] = cited from earlier work
[14] = system: TMPRSS2; settings: for TMPRSS2 densitometry (relative to 0): Fig. 4B, Caco-2, 18 h, listed as HHT
[15] = system: TMPRSS2; settings: Calu-3 cells
[16] = system: TMPRSS2; settings: Caco-2 cells, 18 h treatment then washout
[17] = system: SARS-CoV-2; settings: cited from earlier work
[18] = Fig. S3B, Caco-2, 6 hr, relative to Veh

COC(=O)C[C@](O)(CCCC(C)(C)O)C(=O)O[C@@H]1C(OC)=C[C@]23CCCN2CCc2cc4c(cc2[C@H]13)OCO4 [Homoharringtonine]
IC50 ([1]; Caco-2, read-out: In vitro IC50 (viral entry)): ~0.03 µM | IC50 ([1]; Caco-2, read-out: concentration for 50% reduction in the level of pseudoviral entry): ~0.3 µM | EC50 observed in TMPRSS2-expressing Calu-3 cells [2]: in the sub-micromolar range | reduction of SARS-CoV-2 viral infection [2]: highly effective in reducing SARS-CoV-2 viral infection | pseudoviral GFP expression [3]: markedly reduced levels of GFP expression | CC50 [4]: > 10 µM | E-cadherin protein [5]: unaffected | pseudoviral luciferase reporter signal [6]: dose-dependent reduction of the luciferase signal | signal relative to Control (FigS7 source data) [6]: 0.9261 and 0.5325 and 0.6307 | Ace2 protein [7]: unaffected | TMPRSS2 activity (FigS9 source data) ([8]; 0.08 µM): 0.4186 and 0.4254 and 0.3869 and 0.4813 | TMPRSS2 activity (FigS9 source data) ([8]; 0.4 µM): 0.428 and 0.3513 and 0.3883 and 0.3736 | TMPRSS2 activity (FigS9 source data) ([8]; 2 µM): 0.3803 and 0.3278 and 0.3209 and 0.2843 | TMPRSS2 catalytic activity ([8]; recombinant TMPRSS2, preliminary): do not inhibit TMPRSS2 activity | TMPRSS2-V5 versus LacZ-V5 expression [9]: selectively reduced TMPRSS2 expression | DCAF1 gene expression ([10]; Caco-2, 3µM): do not affect DCAF1 gene expression | relative DCAF1 gene expression ([10]; block Vehicle/HFG/HHT, replicates, listed as HHT): 1.551 and 2.869 and 1.311 | CORIN mRNA expression [11]: 1.163 and 0.982 and 0.932 and 0.999 | TMPRSS2 transcription ([12]; Caco-2 cells): modestly increased | TMPRSS2 mRNA expression, Set1 [12, 18]: 2.5 and 2.009 and 1.288 and 1.873 | TMPRSS2 mRNA expression, set2 [12, 18]: 2.103 and 1.771 and 1.821 and 2.33 | TMPRSS2 mRNA expression, set3 [12, 18]: 2.872 and 1.654 and 1.63 and 2.705 | clinical adverse events [13]: grade III or IV adverse events, including severe myelosuppression | toxicity profile [13]: relatively toxic agent with an adverse side effect profile | time to substantial reduction in TMPRSS2 expression ([14]; Caco-2 cells, 3 µM): within three hours | endogenous TMPRSS2 protein expression ([14]; Caco-2 cells, 18 h): marked reduction | TMPRSS2 densitometry (relative to 0) ([14]; head 0.3 (unit not given)): 0.2253 and 0.285 | TMPRSS2 densitometry (relative to 0) ([14]; head 1): 0.1372 and 0.2276 | TMPRSS2 densitometry (relative to 0) ([14]; head 3): 0.1102 and 0.1378 | TMPRSS2 protein levels [15]: qualitatively similar decreases | recovery of TMPRSS2 levels after drug removal [16]: returned close to baseline roughly six hours after drug removal | EC50 [17]: 2.1 µM
